Assay results from US4562204A, “Trans-Δ^2 -prostaglandin D derivatives, process for their preparation and compositions containing them” (Ono Pharmaceutical Co., Ltd., priority 1982, dated 1985).

Tests used:
[1] = system: human myelogenous leukemic cells (HL-60); test: Inhibition of the proliferation of human myelogenous leukemic cells (HL-60), Trypan Blue staining; assay type: cell-based; settings: HL-60, 96 h, 37° C., 4 days, relative to control (0.1% ethanol), read-out: Percent Inhibition of proliferation, HL-60 cells; for inhibition at 1 µg/mL: 1 μg/ml; for inhibition at 5 µg/mL: 5 μg/ml
Method: Test on the Inhibition of the Proliferation of Human Myelogenous Leukemic Cells (HL-60) Experimental method
The test on the inhibition of the proliferation of human myelogenous leukemic cells was conducted by a well known method. The human myelogenous leukemic cells (HL-60) were added to an RPMI culture solution containing 10% bovine fetal serum, the number of cells in the culture solution was adjusted to 1×10^5 cells/ml, a solution in ethanol of the compound under test was added to give a concentration of 5 μg/ml or 1 μg/ml, and the mixture was subjected to stationary culture at 37° C. for 4 days. As a control, a culture solution containing 0.1% of ethanol was similarly cultured. The culture solutions were stained by the Trypan Blue staining method and the surviving cell number was measured to determine the degree of inhibition relative to the control.

[2] = system: cells originated from human mouth tumour (KB-cells); test: Inhibition of the proliferation of cells originated from human mouth tumour (KB-cells), Trypan Blue staining; assay type: cell-based; settings: 96 h, 37° C., 4 days, relative to control (0.1% ethanol), read-out: Percent Inhibition of proliferation, KB-cells; for inhibition at 1 µg/mL: 1 μg/ml; for inhibition at 5 µg/mL: 5 μg/ml
Method: Test on the Inhibition of the Proliferation of Cells Originated from Human Mouth Tumour (KB-cells) Experimental method
The test on the inhibition of the proliferation of cells originated from human mouth tumour was conducted by a well known method. The cells originated from human mouth tumour (KB-cells) were added to an Eagle's MEM culture solution containing 10% bovine fetal serum, the number of cells in the culture solution was adjusted to 1×10^5 cells/ml, a solution in ethanol of the compound under test was added to give a concentration of 5 μg/ml or 1 μg/ml, and the mixture was subjected to stationary culture at 37° C. for 4 days. As a control, a culture solution containing 0.1% of ethanol was similarly cultured. The culture solutions were stained by the Trypan Blue staining method and the surviving cell number was measured to determine the degree of inhibition relative to the control.

Row | Compound | inhibition at 1 µg/mL [1] | inhibition at 5 µg/mL [1] | inhibition at 1 µg/mL [2] | inhibition at 5 µg/mL [2]
1 | CCCCC[C@H](O)/C=C/[C@H]1C(=O)C=C[C@@H]1C/C=C\C/C=C/C(=O)O [Trans-Δ^2-9-deoxy-Δ^9 -PGD2, (2E,5Z,9Z,13E)-(15S)-11-oxo-15-hydroxyprosta-2,5,9,13-tetraenoic acid] | 1.4% | 99% | 9.7% | 98.5%
2 | CCCCCC=CC=C1C(=O)C=C[C@@H]1C/C=C\C/C=C/C(=O)O [(2E,5Z,9Z,14EZ)-11-oxoprosta-2,5,9,12,14-pentaenoic acid] | 4.8% | 98.3% | 0% | 100%
3 | CCCCC[C@H](O)/C=C/[C@H]1C(=O)C[C@H](O)[C@@H]1C/C=C\C/C=C/C(=O)O [Trans-Δ^2 -PGD2, (2E,5Z,13E)-(9α,15S)-9,15-dihydroxy-11-oxoprosta-2,5,13-trienoic acid] | 0% | 19.4% | 2.1% | 17.9%
